According to patent US20230406865A1, “CRYSTAL FORM OF FREE BASE OF INHIBITOR CONTAINING BICYCLIC RING DERIVATIVE AND PREPARATION METHOD AND APPLICATION OF CRYSTAL FORM” (SHANGHAI HANSOH BIOMEDICAL CO., LTD., priority 2020, published 2023):

How the values were obtained:
[1] = tested on: TT cells (MTC, RET C634W); assay: Inhibition of proliferation of TT cells (CellTiter-Glo, 72 h); assay type: cell-based; settings: Homo sapiens
Experimental: TT cells were purchased from the cell bank of the Chinese Academy of Sciences.
When TT cells were cultured to the appropriate fusion level, TT cells were collected, and the cells were adjusted to the appropriate cell concentration using complete medium, and the cell suspension was spread in a 96-well plate, 90 μL per well, and placed to the wall of a 37° C., 5% CO2 incubator overnight; and compound solutions of different concentrations were prepared using DMSO and culture medium; and a solvent control was set, the compound solution was added to a 96-well plate, 10 μL per well, and placed to the wall of a 37° C., 5% CO2 incubator for 72 hours; CellTiter-Glo solution was added thereto and the mixture was mixed well by shaking, incubated for 10 minutes in the dark, and read by BioTek Synergy H1 microplate reader.
The IC50 values were obtained by using luminescence signal values to calculate the inhibition rate, the concentration and the inhibition rate were fitted to a nonlinear regression curve using Graphpad Prism software.

Ba/F3 KIF5B-RET cells = biological target: T1, Ba/F3 KIF5B-RET cells (Homo sapiens, UniProt P07949); assay: Inhibition of proliferation of Ba/F3 KIF5B-RET cells (CellTiter-Glo); assay type: cell-based; settings: 72 to 144 hours
T1 construct: fused on or other part: P33176 (Kinesin-1 heavy chain)
Experimental: When Ba/F3 KIF5B-RET cells were cultured to the appropriate cell density, cells were collected, and the cells were adjusted to the appropriate cell concentration using complete medium, and the cell suspension was spread in a 96-well plate, 90 μL per well, and placed in the wall of a 37° C., 5% CO2 incubator overnight; compound solutions of different concentrations were prepared using DMSO and culture medium; a solvent control was set, and the compound solution was added to a 96-well plate with […] at 37° C. in a 5% CO2 incubator for 72 to 144 hours, CellTiter-Glo solution was added thereto and mixed well by shaking, incubated for 10 minutes in the dark, and read by BioTek Synergy H1 microplate reader.
The IC50 values were obtained by using the luminescence signal values to calculate the inhibition rate, the concentrations and the inhibition rates were fitted to a nonlinear regression curve using Graphpad Prism software.

[2] = Balb/C mouse pharmacokinetics, oral 5 mg/kg; assay type: in vivo, Balb/C mice; settings: male, p.o. 5 mg/kg, plasma
Experimental: The pharmacokinetic behavior of the following compound embodiments, administered orally at a dose of 5 mg/kg in plasma in mice, was studied using Balb/C mice as test animals.
Balb/C Mouse 6/embodiment, male, Shanghai Jiesijie Laboratory Animal Co., Ltd, Animal Production License No. (SCXK (Shanghai) 2013-0006 N0.311620400001794).
Balb/C mice, males; p.o. after overnight fasting, respectively, at a dose of 5 mg/kg, administered in a volume of 10 mL/kg.
0.5% CMC-Na (1% Tween80) was dissolved by ultrasound, and prepared into clear solution or uniform suspension.
Before and after administration, 0.1 mL of blood was collected from mice at 0, 0.5, 1, 2, 4, 6, 8 and 24 hours by orbital collection, placed in EDTA-K2 tubes, centrifuged at 6000 rpm at 4° C. for 6 minutes to separate plasma, and stored at −80° C.
2.5 Sample Handling: • 1) 40 μL of plasma sample was precipitated by adding 160 μL of acetonitrile, mixed and centrifuged at 3500×g for 5-20 minutes. • 2) 100 μL of the supernatant solution after treatment was taken to analyze the concentration of the test compound by LC/MS/MS.
2.6 Liquid Phase Analysis • Liquid phase conditions: Shimadzu LC-20AD pump • Mass spectrometry conditions: AB Sciex API 4000 mass spectrometer • Chromatographic column: phenomenex Gemiu 5 μM C18 50×4.6 mm • Mobile phase: Liquid A was 0.1% formic acid aqueous solution, liquid B was acetonitrile • Flow rate: 0.8 mL/min • Elution time: 0-4.0 minutes, the eluent was as follows:
The main pharmacokinetic parameters were calculated by WinNonlin 6.1 and the results of the mouse pharmacokinetic experiments were shown in Table 13 below.

T1 sequence (P07949 whole entry, change not shown, the tested form may be a part): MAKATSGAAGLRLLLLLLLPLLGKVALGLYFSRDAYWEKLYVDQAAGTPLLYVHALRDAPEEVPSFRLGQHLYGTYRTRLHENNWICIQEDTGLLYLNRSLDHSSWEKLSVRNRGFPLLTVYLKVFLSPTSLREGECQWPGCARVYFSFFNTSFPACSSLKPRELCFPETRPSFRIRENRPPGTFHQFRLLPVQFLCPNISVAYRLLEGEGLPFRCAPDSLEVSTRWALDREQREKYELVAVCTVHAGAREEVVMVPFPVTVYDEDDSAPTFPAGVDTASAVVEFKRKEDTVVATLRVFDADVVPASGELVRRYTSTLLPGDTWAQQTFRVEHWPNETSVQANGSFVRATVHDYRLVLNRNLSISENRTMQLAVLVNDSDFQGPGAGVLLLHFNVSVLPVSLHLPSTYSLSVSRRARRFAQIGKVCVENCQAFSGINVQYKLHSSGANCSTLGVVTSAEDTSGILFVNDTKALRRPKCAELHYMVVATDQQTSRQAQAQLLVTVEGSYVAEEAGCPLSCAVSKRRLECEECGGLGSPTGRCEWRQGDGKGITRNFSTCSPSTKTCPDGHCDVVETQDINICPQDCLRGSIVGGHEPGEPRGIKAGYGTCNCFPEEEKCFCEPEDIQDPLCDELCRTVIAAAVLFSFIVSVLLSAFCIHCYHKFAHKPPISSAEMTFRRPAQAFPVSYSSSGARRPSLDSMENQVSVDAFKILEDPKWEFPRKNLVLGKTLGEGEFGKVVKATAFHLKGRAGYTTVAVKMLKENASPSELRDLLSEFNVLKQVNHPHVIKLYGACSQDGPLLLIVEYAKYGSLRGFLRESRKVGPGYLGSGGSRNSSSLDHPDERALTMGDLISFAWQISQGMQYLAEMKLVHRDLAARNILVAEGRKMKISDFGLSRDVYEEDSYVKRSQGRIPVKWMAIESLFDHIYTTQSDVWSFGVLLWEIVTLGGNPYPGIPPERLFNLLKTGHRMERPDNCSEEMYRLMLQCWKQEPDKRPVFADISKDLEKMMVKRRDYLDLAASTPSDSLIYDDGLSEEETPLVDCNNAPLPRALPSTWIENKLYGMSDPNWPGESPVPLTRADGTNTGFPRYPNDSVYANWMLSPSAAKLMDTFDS

SMILES	IC50 [1] [nM]	IC50 (Ba/F3 KIF5B-RET cells) [nM]	also measured
COCC(C)(O)C#Cc1cc(-c2ccc(N3CC4CC(C3)N4Cc3ccc(OC)nc3)nc2)c2c(C#N)cnn2c1 (stereo not shown) [Embodiment 75, 6-(3-Hydroxy-4-methoxy-3-methylbut-1-yn-1-yl)-4-(6-(6-((6-methoxypyridin-3-yl)methyl)-3,6-diazabicyclo[3.1.1]heptan-3-yl)pyridin-3-yl)pyrazolo[1,5-a]pyridine-3-carbonitrile]	24.4	34.7	–
Cc1ccc(F)cc1C(=O)NC1(C)CCN(c2ccc(-c3cc(C#CC(C)(C)N)cn4ncc(C#N)c34)cn2)CC1 [Embodiment 87, N-(1-(5-(6-(3-amino-3-methylbut-1-yn-1-yl)-3-cyanopyrazolo[1,5-a]pyridin-4-yl)pyridin-2-yl)-4-methylpiperidin-4-yl)-5-fluoro-2-methylbenzamide]	23.6	18.5	–
COc1ccc(CN2C3CC2CN(c2ccc(-c4cc(C#CC5(O)CCC5)cn5ncc(C#N)c45)cn2)C3)cn1 [Embodiment 82, 6-((1-Hydroxycyclobutyl)ethynyl)-4-(6-(6-((6-methoxypyridin-3-yl)methyl)-3,6-diazabicyclo[3.1.1]heptan-3-yl)pyridin-3-yl)pyrazolo[1,5-a]pyridine-3-carbonitrile]	17.8	21.9	–
COc1ncc(CN2C3CC2CN(c2ccc(-c4cc(C#CC5(O)COC5)cn5ncc(C#N)c45)cn2)C3)cc1F [Embodiment 81, 4-(6-(6-((5-Fluoro-6-methoxypyridin-3-yl)methyl)-3,6-diazabicyclo[3.1.1]heptan-3-yl)pyridin-3-yl)-6-((3-hydroxyoxetan-3-yl)ethynyl)pyrazolo[1,5-a]pyridine-3-carbonitrile]	13.8	16.8	–
COc1ncc(CN2C3CC2CN(c2ccc(-c4cc(OCC56CC(CO)(C5)C6)cn5ncc(C#N)c45)cn2)C3)cc1F [Embodiment 71, 4-(6-(6-((5-Fluoro-6-methoxypyridin-3-yl)methyl)-3,6-diazabicyclo[3.1.1]heptan-3-yl)pyridin-3-yl)-6-((3-(hydroxymethyl)bicyclo[1.1.1]pentan-1-yl)methoxy)pyrazolo[1,5-a]pyridine-3-carbonitrile]	8.65	5.59	–
COc1ncc(CN2C3CC2CN(c2ccc(-c4cc(N5CC(C)(O)C5)cn5ncc(C#N)c45)cn2)C3)cc1F [Embodiment 73, 4-(6-(6-((5-Fluoro-6-methoxypyridin-3-yl)methyl)-3,6-diazabicyclo[3.1.1]heptan-3-yl)pyridin-3-yl)-6-(3-hydroxy-3-methylazetidin-1-yl)pyrazolo[1,5-a]pyridine-3-carbonitrile]	5.95	12	–
COc1ncc(CN2C3CC2CN(c2ccc(-c4cc(C#CC5(O)CCOCC5)cn5ncc(C#N)c45)cn2)C3)cc1F [Embodiment 79, 4-(6-(6-((5-Fluoro-6-methoxypyridin-3-yl)methyl)-3,6-diazabicyclo[3.1.1]heptan-3-yl)pyridin-3-yl)-6-((4-hydroxytetrahydro-2H-pyran-4-yl)ethynyl)pyrazolo[1,5-a]pyridine-3-carbonitrile]	10.5	13.7	–
[2H]C([2H])([2H])Oc1ccc(CN2C3CC2CN(c2ccc(-c4cc(C#CC(C)(C)O)cn5ncc(C#N)c45)cn2)C3)cn1 [Embodiment 25, 6-(3-Hydroxy-3-methylbut-1-yn-1-yl)-4-(6-(6-((6-(methoxy-d3)pyridin-3-yl)methyl)-3,6-diazabicyclo[3.1.1]heptan-3-yl)pyridin-3-yl)pyrazolo[1,5-a]pyridine-3-carbonitrile]	15	13.5	–
COc1ncc(CN2C3CC2CN(c2ccc(-c4cc(N5CC(C)(C#N)C5)cn5ncc(C#N)c45)cn2)C3)cc1F [Embodiment 76, 6-(3-Cyano-3-methylazetidin-1-yl)-4-(6-(6-((5-fluoro-6-methoxypyridin-3-yl)methyl)-3,6-diazabicyclo[3.1.1]heptan-3-yl)pyridin-3-yl)pyrazolo[1,5-a]pyridine-3-carbonitrile]	3.48	6.04	–
CC(C)(N)C#Cc1cc(-c2ccc(N3CCC(C)(NC(=O)c4ncccc4Cl)CC3)nc2)c2c(C#N)cnn2c1 [Embodiment 86, N-(1-(5-(6-(3-Amino-3-methylbut-1-yn-1-yl)-3-cyanopyrazolo[1,5-a]pyridin-4-yl)pyridin-2-yl)-4-methylpiperidin-4-yl)-3-chloropicolinamide]	14.6	15.4	–
COc1ccc(CN2C3CC2CN(c2ccc(-c4cc(OCC56CC(CO)(C5)C6)cn5ncc(C#N)c45)cn2)C3)cn1 [Embodiment 45, 6-((3-(Hydroxymethyl)bicyclo[1.1.1]pentan-1-yl)methoxy)-4-(6-(6-((6-methoxypyridin-3-yl)methyl)-3,6-diazabicyclo[3.1.1]heptan-3-yl)pyridin-3-yl)pyrazolo[1,5-a]pyridine-3-carbonitrile]	9.17	7.06	–
COc1ccc(CN2C3CC2CN(c2ccc(-c4cc(C#CC5(O)CCOCC5)cn5ncc(C#N)c45)cn2)C3)cn1 [Embodiment 78, 6-((4-Hydroxytetrahydro-2H-pyran-4-yl)ethynyl)-4-(6-(6-((6-methoxypyridin-3-yl)methyl)-3,6-diazabicyclo[3.1.1]heptan-3-yl)pyridin-3-yl)pyrazolo[1,5-a]pyridine-3-carbonitrile]	13.9	15.6	–
COc1ccc(CN2C3CC2CN(c2ccc(-c4cc(OC[C@H]5C[C@@](C)(O)C5)cn5ncc(C#N)c45)cn2)C3)cn1 [Embodiment 44, 6-((Cis-3-hydroxy-3-methylcyclobutyl)methoxy)-4-(6-(6-((6-methoxypyridin-3-yl)methyl)-3,6-diazabicyclo[3.1.1]heptan-3-yl)pyridin-3-yl)pyrazolo[1,5-a]pyridine-3-carbonitrile]	12.2	15.3	MRT ([2]; read-out: Average residence time MRT): 5.22 h; Cmax ([2]; read-out: Blood concentration Cmax): 1620 ng/mL; AUC(0-t) ([2]; read-out: Curve area AUC0-t): 14000 ng·h/mL; AUC(0-inf) ([2]; read-out: Curve area AUC0-∞): 14000 ng·h/mL; half-life ([2]; read-out: Half-life t1/2 (converted)): 3.45 h; Tmax ([2]; read-out: Peak time tmax): 0.5 h
COc1ccc(CN2C3CC2CN(c2ccc(-c4cc(C#CC5(O)COC5)cn5ncc(C#N)c45)cn2)C3)cn1 [Embodiment 80, 6-((3-Hydroxyoxetan-3-yl)ethynyl)-4-(6-(6-((6-methoxypyridin-3-yl)methyl)-3,6-diazabicyclo[3.1.1]heptan-3-yl)pyridin-3-yl)pyrazolo[1,5-a]pyridine-3-carbonitrile]	17.3	23.9	–
